Patent US20220054658A1, “CONJUGATES” (Transfection Holdings Limited, priority 2018, published 2022)
Entries after “also recorded” stand apart in the source; their conditions may differ.

Assays:
[1] = test system: M. tuberculosis strain H37Rv; experiment: Uptake test in M. tuberculosis; type: cell-based, Mycobacterium tuberculosis; settings: 50 μg/mL (~80 μM), room temperature, 45 min
[2] = test system: P. falciparum; experiment: Plasmodium falciparum testing: uptake by infected and non-infected red blood cells; type: cell-based; settings: 25 μM, 45 minutes, 37° C., synchronised stage and mix-stage cultures
Description: Compounds 1, 5, 9, 10 and 11 were tested for uptake in both synchronised stage and mix-stage cultures at 25 μM concentrations.

[3] = test system: B. bovis Texas strain; experiment: Short-term uptake test in B. bovis infected RBCs (confocal microscopy); settings: 25 μM, 37° C., 45 min, ~5% PPE
Description: The parasite culture was centrifuged and washed once with GIT medium. RBC's were pellet down, and 20 μl infected RBC mixture (10 μl packed infected RBC+10 μl GIT) was prepared. Then, 180 μl GIT medium with compound the compound to be evaluated (final concentration 25 μM for BODIPY derivatives and 100 μM for phiLOV derivatives) or DMSO (0.1%)/PBS control was added. The samples were incubated for 45 min at 37° C. (Samples were stained 1 μg/mL diluted Hoechst 33342 in GIT medium). After incubation, the samples were centrifuged and the pellet was washed with GIT medium (3×). A final solution of 50% haematocrit infected RBC mixture was transferred to slides to be observed by confocal laser microscopy (Nikon A1).
Uptake experiments were performed by incubating the parasite (˜5% Parasitized Erythrocytes (PPE)) with each derivative at 25 μM and 37° C. for 45 min. After incubation, the fluorescence intensities were calculated from confocal microscope images.
The phiLOV double mutant (R475G, K476C) was used to generate derivatives P11, P1, P8, and P3 which were tested for uptake in B. bovis Texas strain using phiLOV as a control. The derivatives and the control were incubated at 100 μM and 37° C. for 45 min. After incubation, the samples were analysed under confocal microscopy using Hoeschst 33342 (Thermofisher) as co-stain.

[4] = test system: T. annulata; experiment: Theileria annulata testing: uptake; type: cell-based; settings: 1 hour, 37° C.
Description: T. annulata were cultured using RPMI 1640 with 10% Albumax II (Thermo-Fisher) serum. A standard hemocytometer was used to calculate the concentration of cells in the parent culture. […] For each compound and concentration to be tested, 2 mL of the culture were centrifuged at 1,000 rpm for 5 minutes. The medium was removed before the cells were resuspended in 950 μL of complete medium containing the compound to be tested at the desired concentration. This was prepared from a 100 mM stock solution of compound in DMSO. Once the cells were resuspended they were transferred to a 5 well plate (1 mL capacity per well). They were then incubated for 1 hour at 37° C. in an atmosphere of 5% CO2 in air. After the incubations were complete the contents of each well were transferred to a 10 mL centrifuge tube. Cold RPMI 1640 (Thermofisher) or HBSS added to obtain a volume of 5 mL. The suspension was then centrifuged at 1,000 rpm and at 4° C. for 5 minutes. […] After the final washing the pellet of cells was resuspended in a minimum amount of RPMI 1640 and then spotted onto a glass slide. The slide was then covered with a cover slip and analysed using Olympus BX60 UV microscope system with a Spot RT3 camera and Spot Image software with a FITC fluorescent filter.

## CC1=CC(C)=[N+]2C1=Cc1ccc(CCCn3cc(CCNC(=O)/C=C/NC(=O)[C@@H]4OC(C)(C)OCC4(C)C)nn3)n1[B-]2(F)F [Compound 1, (R,E)-N-((((3-[4,4-Difluoro-5,7-dimethyl-4-bora-3a,4a-diaza-s-indacene-3-yl]propyl)-1H-1,2,3-triazol-4-yl)ethylamino)-3-oxoprop-1-enyl)-2,2,5,5-tetramethyl-1,3-dioxane-4-carboxamide]
[1]
  uptake in M. tuberculosis (fluorescence intensity / microscopy): preferred over their S counterparts; also recorded: highest fluorescence signals
[2]
  uptake by infected and non-infected red blood cells: not taken up either by infected nor non-infected red blood cells in every culture
[3]
  uptake in RBCs infected with B. bovis (fluorescence intensity from confocal images): highest uptake
[4]
  uptake in T. annulata: very limited uptake
